Measured values from US20220386606A1, “SPECIFICALLY SUBSTITUTED 3-PHENYL-5-SPIROCYCLOPENTYL-3-PYRROLIN-2-ONES AND THEIR USE AS HERBICIDES” (Bayer Aktiengesellschaft, priority 2019, published 2022).

Tests used:
[1] = system: ALOMY; assay: Pre-emergence herbicidal action against ALOMY; format: in vivo, Alopecurus myosuroides; conditions: 320 g/ha, scored visually after 3 weeks vs untreated controls
Procedure, shortened: (§1)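 Pre-emergence soil-surface application: WP/EC in water, 600 to 800 L/ha, + 0.2% wetting agent, onto soil-covered seeds in sandy loam. Greenhouse, 3 wk. Visual % activity vs untreated (100% = dead).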

[2] = system: AVEFA; assay: Pre-emergence herbicidal action against AVEFA; format: in vivo, Avena fatua; conditions: 320 g/ha, scored visually after 3 weeks vs untreated controls
Procedure, shortened: as §1

[3] = system: DIGSA; assay: Pre-emergence herbicidal action against DIGSA; format: in vivo, Digitaria sanguinalis; conditions: 320 g/ha, scored visually after 3 weeks vs untreated controls
Procedure, shortened: as §1

[4] = system: ECHCG; assay: Pre-emergence herbicidal action against ECHCG; format: in vivo, Echinochloa crus-galli; conditions: 320 g/ha, scored visually after 3 weeks vs untreated controls
Procedure, shortened: as §1

[5] = system: LOLRI; assay: Pre-emergence herbicidal action against LOLRI (Table 8, titled post-emergence at 320 g/ha); format: in vivo, Lolium rigidum; conditions: table stands in the pre-emergence section
Procedure, shortened: as §1

[6] = system: SETVI; assay: Pre-emergence herbicidal action against SETVI; format: in vivo, Setaria viridis; conditions: 320 g/ha, scored visually after 3 weeks vs untreated controls
Procedure, shortened: as §1

[7] = system: AMARE; assay: Pre-emergence herbicidal action against AMARE; format: in vivo, Amaranthus retroflexus; conditions: 320 g/ha
Procedure, shortened: as §1

[8] = system: MATIN; assay: Pre-emergence herbicidal action against MATIN; format: in vivo; conditions: 320 g/ha
Procedure, shortened: as §1

[9] = system: VIOTR; assay: Pre-emergence herbicidal action against VIOTR; format: in vivo, Viola tricolor; conditions: 320 g/ha
Procedure, shortened: as §1

[10] = system: ALOMY; assay: Post-emergence herbicidal action against ALOMY; format: in vivo, Alopecurus myosuroides; conditions: 80 g/ha, visual assessment after about 3 weeks
Procedure, shortened: (§2)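 Herbicidal action is rated visually in percent against untreated controls, where 100% means dead plants and 0% means no difference. Ratings come about 3 weeks after foliar spraying of one-leaf-stage plants with aqueous WP or EC preparations plus 0.2% wetting agent at 600 to 800 l/ha.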

[11] = system: AVEFA; assay: Post-emergence herbicidal action against AVEFA; format: in vivo, Avena fatua; conditions: 80 g/ha, visual assessment after about 3 weeks
Procedure, shortened: as §2

[12] = system: DIGSA; assay: Post-emergence herbicidal action against DIGSA; format: in vivo, Digitaria sanguinalis; conditions: 80 g/ha, visual assessment about 3 weeks after treatment vs untreated controls
Procedure, shortened: as §2

[13] = system: ECHCG; assay: Post-emergence herbicidal action against ECHCG; format: in vivo, Echinochloa crus-galli; conditions: 80 g/ha, visual assessment about 3 weeks after treatment vs untreated controls
Procedure, shortened: as §2

[14] = system: LOLRI; assay: Post-emergence herbicidal action against LOLRI; format: in vivo, Lolium rigidum; conditions: 80 g/ha, visual assessment about 3 weeks after treatment vs untreated controls
Procedure, shortened: as §2

[15] = system: ABUTH; assay: Post-emergence herbicidal action against ABUTH; format: in vivo, Abutylon threophrasti; conditions: 80 g/ha, visual assessment about 3 weeks after treatment vs untreated controls
Procedure, shortened: as §2

[16] = system: VERPE; assay: Post-emergence herbicidal action against VERPE; format: in vivo, Veronica persica; conditions: 80 g/ha, visual assessment about 3 weeks after treatment vs untreated controls
Description: (§3) Seeds of monocotyledonous and dicotyledonous weed and crop plants are laid out in sandy loam soil in wood-fiber pots, covered with soil and cultivated in a greenhouse under good growth conditions. 2 to 3 weeks after sowing, the test plants are treated at the one-leaf stage. The compounds of the invention, formulated in the form of wettable powders (WP) or as emulsion concentrates (EC), are then sprayed onto the green parts of the plants as aqueous suspension or emulsion at a water application rate equating to 600 to 800 l/ha with addition of 0.2% wetting agent. After the test plants have been left to stand in the greenhouse under optimal growth conditions for about 3 weeks, the action of the preparations is assessed visually in comparison to untreated controls (herbicidal action in percent (%): 100% activity=the plants have died, 0% activity=like control plants).

[17] = system: ABUTH; assay: Pre-emergence herbicidal action against ABUTH; format: in vivo, Abutylon threophrasti; conditions: 320 g/ha
Procedure, shortened: as §1

[18] = system: POLCO; assay: Pre-emergence herbicidal action against POLCO; format: in vivo, Polygonum convolvulus; conditions: 320 g/ha
Procedure, shortened: as §1

[19] = system: VERPE; assay: Pre-emergence herbicidal action against VERPE; format: in vivo, Veronica persica; conditions: 320 g/ha
Procedure, shortened: as §1

[20] = system: SETVI; assay: Post-emergence herbicidal action against SETVI; format: in vivo, Setaria viridis; conditions: 80 g/ha, visual assessment about 3 weeks after treatment vs untreated controls
Procedure, shortened: as §2

[21] = system: AMARE; assay: Post-emergence herbicidal action against AMARE; format: in vivo, Amaranthus retroflexus; conditions: 80 g/ha, visual assessment about 3 weeks after treatment vs untreated controls
Description: as §3

[22] = system: HORMU; assay: Post-emergence herbicidal action against HORMU; format: in vivo, Hordeum murinum; conditions: 80 g/ha, visual assessment about 3 weeks after treatment vs untreated controls
Procedure, shortened: as §2

Compound	Pre-emergence action against ALOMY in % [1]	Pre-emergence action against AVEFA in % [2]	Pre-emergence action against DIGSA in % [3]	Pre-emergence action against ECHCG in % [4]	Pre-emergence herbicidal action against LOLRI in % [5]	Pre-emergence action against SETVI in % [6]	Pre-emergence action against AMARE in % [7]	Pre-emergence action against MATIN in % [8]	Pre-emergence action against VIOTR in % [9]	Post-emergence action against ALOMY in % [10]	Post-emergence action against AVEFA in % [11]	Post-emergence action against DIGSA in % [12]	Post-emergence action against ECHCG in % [13]	Post-emergence action against LOLRI in % [14]	Post-emergence action against VERPE in % [16]	Pre-emergence action against VERPE in % [19]	Post-emergence action against SETVI in % [20]	also measured
CC#Cc1cc(C)c(C2=C(O)C3(CCC(COCC)C3)NC2=O)c(OC)c1 (centres unmarked) [Example I-30]	100%	90%	100%	100%	100%	100%	100%	90%	100%	90%	80%	100%	100%	100%	80%			Post-emergence action against ABUTH in % [15]: 80%
C=CCOCC1CCC2(C1)NC(=O)C(c1c(C)cc(C#CC)cc1Cl)=C2O (centres unmarked) [Example I-44]	100%	90%	100%	90%	100%	100%	100%	80%	100%	100%	80%	100%	100%	80%		80%	100%	Pre-emergence action against ABUTH in % [17]: 80%; Pre-emergence action against POLCO in % [18]: 100%; Post-emergence action against AMARE in % [21]: 80%
CC#Cc1cc(C)c(C2=C(O)C3(CCC(COCCC)C3)NC2=O)c(Cl)c1 (centres unmarked) [Example I-71]	100%	80%	100%	100%	100%	100%		90%	100%	90%	80%	90%	90%	90%	80%	90%	100%	
CC#Cc1cc(Cl)c(C2=C(OC(=O)OCC)C3(CCC(COCC)C3)NC2=O)c(CC)c1 (centres unmarked) [Example P-21]										100%	100%	100%	100%	100%	80%		100%	Post-emergence action against HORMU in % [22]: 100%
